As a reminder, the MIC is the least concentration at which growth counts as inhibited. A low value points to a more susceptible organism.

The structures appear in SMILES notation. In brackets after ≈: the same amount, converted by molar mass. Starred links: 1 amine or outer side, 2 acyl side, 3 side chain; linkers in the order of their positions; H or OH if unused. Positions of bridges follow the written chain, without caps; N, C: chain ends. Non-standard residues stand in square brackets, D forms with d. Residues, ends and D or L forms follow the SMILES beside them. X4 = CC(C)CCC=CCCC[C@H](CC(=O)[*:1])O[*:2]; X6 = CC(C)CCCCC=CC[C@H](CC(=O)[*:1])O[*:2]; X5 = CC(C)CCCCCCC[C@H](CC(=O)[*:1])O[*:2]; X3 = CC(C)CCCCC[C@H](CC(=O)[*:1])O[*:2]; X7 = CCCCCCC=CC[C@H](CC(=O)[*:1])O[*:2]; X2 = CCCCCCC[C@H](CC(=O)[*:1])O[*:2]; Val(3-OH) = CC(C)(O)[C@H](N)C(=O)O; X1 = C/C=C(/N[*:1])C(=O)[*:2]; Dab = NCC[C@H](N)C(=O)O; Dap = NC[C@H](N)C(=O)O

This assay has as its system K. pneumoniae LMG20218. Nature of the assay: MIC, broth micro-dilution, primary panel. The format is cell-based, Klebsiella pneumoniae. The conditions noted are these: for MIC K. pneumoniae LMG20218: ESBL; for MIC: Klebsiella pneumoniae, LMG20218, ESBL. On the procedure: Isopedopeptin E (5): off-white solid; [α] D20 –36° (c 0.3 in methanol); UV (MeOH) λ max (log10 ε) 240 (3.8); 1H NMR (DMSO-d 6, 600 MHz), see Table S5; 13C NMR (DMSO-d 6, 150 MHz), see Table […]
Isopedopeptin F (6): off-white solid; [α] D20 –32° (c 0.05 in methanol); UV (MeOH) λ max (log10 ε) 240 (3.8); 1H NMR (DMSO-d 6, 600 MHz), see Table S6; 13C NMR (DMSO-d 6, 150 MHz), see Table […]
Isopedopeptin G (7): off-white solid; [α] D20 –49° (c 0.1 in methanol); UV (MeOH) λ max (log10 ε) 240 (4.0); 1H NMR (DMSO-d 6, 600 MHz), see Table S7; 13C NMR (DMSO-d 6, 150 MHz), see Table […]
Isopedopeptin H (8): off-white solid; [α] D20 –56° (c 0.2 in methanol); UV (MeOH) λ max (log10 ε) 240 (4.0); 1H NMR (DMSO-d 6, 600 MHz), see Table S8; 13C NMR (DMSO-d 6, 150 MHz), see Table […]
Minimal Inhibitory Concentration (MIC) against the primary panel of microorganisms.
The MIC for compounds 1–8 was measured by means of a broth micro-dilution method in 96-wells microtiter plates with the addition of E. coli LMG15862, LMG1041 T, E. cloacaeA. baumannii […]
H-29 and A. fumigatus J7, as test organisms. The test media were AM3 Broth (BD Difco Ltd) mixed with phosphate buffered saline (PBS, Amresco LLC, Solon, USA) in 1:4 ratio (E. coli, A. baumannii, E. cloacae, K. pneumoniae and P. aeruginosa), AM3 Broth mixed with PBS in 1:1 ratio (S. aureus), ME (A. fumigatus) and ISP2 (C. albicans). Prior to MIC determination, the cell concentration of tested bacterial/fungal pathogens was adjusted to ≅ 4 × 10^5 CFU/mL (acceptable range 2 – 6 × 10^5 CFU/mL). Cell concentration was confirmed by colony counting after diluting and plating the respective bacterial pathogen on VPA plates [VPA, 10 g Vegetable Peptone Broth (Oxoid Ltd., Basingstoke,UK), 15 g Bacto Agar (Difco Ltd, Tyrone) in 1 L deionised water] directly after each of MIC-tests. The cells of C. albicans were plated on ISP2 agar plates [ISP2, 15 g Bacto Agar (Difco Ltd) in 1 L deionised water] and respectively spores of A. fumigatus were plated on MEA plates.
Plates were, subsequently, incubated at 37 °C in the dark, and viable colonies counted after 16 to 24 h.
To estimate MIC values (concentration range between 0.05 and 50 µg/mL), solutions of the tested compounds (100, 10 and 1 and if needed 0.1 µg/mL in MeOH) were dispensed into wells of microtiter plate(s) and the solvent was evaporated in a fume-hood. Subsequently, suspensions of pathogen cells in the appropriate medium were dispensed to the wells of microtiter plates and the growth of pathogens were observed after 16 to 20 h of incubation at 37 °C in the dark. Positive controls were the respective pathogen cells suspended in untreated sterile media without addition of compounds(s) and negative controls were the media only. MIC values were defined as the lowest concentration of each compound with no visible growth of pathogen. All MIC tests were performed in triplicate and […]
MIC determination for compound 2 against an extended panel of bacterial strains.
Compound 2 was evaluated against a panel of Gram-negative bacteria (Hughes strain collection), including: A. baumannii ATCC 19606, wild-type; BM4454, multidrug-resistant clinical isolate; BM4652, efflux-defective derivative of BM4454; CH9622, colistin-resistant clinical isolate; E. coli ATCC 25922, wild-type; CH3130, efflux-defective ΔtolC mutant isogenic to ATCC 25922; D22, a drug-hypersensitive lpxC mutant of E. coli; CH3491, multidrug-resistant clinical isolate; CH9623 and CH9624, colistin-resistant clinical isolates carrying mcr-1; K. pneumoniae ATCC 13833, wild-type; […]
clinical isolate; CH9625 and CH9626, colistin-resistant clinical isolates; P. aeruginosa PAO1, wild-type; PAO750, efflux-defective mutant isogenic to PAO1. The in vitro antimicrobial activity of each compound was determined by measuring the MIC value using the broth micro-dilution technique in cation-adjusted Mueller-Hinton II broth (Becton-Dickinson, 212322) according to EUCAST and CLSI guidelines. Each compound prepared in MHII medium was dispensed into a 96-well round- […]

With `C/C=C1/NC(=O)[C@H](CCN)NC(=O)[C@H](CC(C)C)NC(=O)[C@H](CN)NC(=O)C[C@@H](CCCCCC(C)C)OC(=O)[C@H](CC(=O)O)NC(=O)[C@H](C(C)(C)O)NC(=O)[C@@H](Cc2ccccc2)NC(=O)[C@H](CN)NC(=O)[C@H]([C@@H](C)O)NC1=O` [Compound 1, cyclo(3-hydroxy-9-methyldecanoyl-DAPA1-Leu-DABA-ABA-Thr-DAPA2-Phe-OHVal-Asp)] ([Dap]L[Dab][X1]T[Dap][dF][Val(3-OH)]D; linker N-C via X3), the “MIC K. pneumoniae LMG20218” value was 8 mg/L (≈ 7.07 µM) and the MIC lay in the range of 8 to 16 mg/L (≈ 7.07 to 14.1 µM). The matching figures for `C/C=C1/NC(=O)[C@H](CCN)NC(=O)[C@H](CC(C)C)NC(=O)[C@H](CN)NC(=O)C[C@@H](CCCCCCC)OC(=O)[C@H](CC(=O)O)NC(=O)[C@H](C(C)(C)O)NC(=O)[C@@H](Cc2ccccc2)NC(=O)[C@H](CN)NC(=O)[C@H]([C@@H](C)O)NC1=O` [Compound 2, isopedopeptin B] ([Dap]L[Dab][X1]T[Dap][dF][Val(3-OH)]D; linker N-C via X2): 16 mg/L (≈ 14.3 µM) and 8 to 16 mg/L (≈ 7.16 to 14.3 µM). `C/C=C1/NC(=O)[C@H](CCN)NC(=O)[C@H](CC(C)C)NC(=O)[C@H](CN)NC(=O)C[C@@H](CC=CCCCCCC)OC(=O)[C@H](CC(=O)O)NC(=O)[C@H](C(C)(C)O)NC(=O)[C@@H](Cc2ccccc2)NC(=O)[C@H](CN)NC(=O)[C@H]([C@@H](C)O)NC1=O` [Compound 3, isopedopeptin C] ([Dap]L[Dab][X1]T[Dap][dF][Val(3-OH)]D; linker N-C via X7) displayed an MIC of 32 mg/L (≈ 28 µM). Still for that read-out and setting: the value for `C/C=C1/NC(=O)[C@H](CCN)NC(=O)[C@H](CC(C)C)NC(=O)[C@H](CN)NC(=O)C[C@@H](CCCCCCC)OC(=O)[C@H](CC(=O)O)NC(=O)[C@H](C(C)C)NC(=O)[C@@H](Cc2ccccc2)NC(=O)[C@H](CN)NC(=O)[C@H]([C@@H](C)O)NC1=O` [Compound 4, isopedopeptin D] ([Dap]L[Dab][X1]T[Dap][dF]VD; linker N-C via X2) was above 32 mg/L; that for `C/C=C1/NC(=O)[C@H](CCN)NC(=O)[C@H](CC(C)C)NC(=O)[C@H](CN)NC(=O)C[C@@H](CCCCCC(C)C)OC(=O)[C@H](CC(=O)O)NC(=O)[C@H](C(C)C)NC(=O)[C@@H](Cc2ccccc2)NC(=O)[C@H](CN)NC(=O)[C@H]([C@@H](C)O)NC1=O` [Compound 5, Isopedopeptin E] ([Dap]L[Dab][X1]T[Dap][dF]VD; linker N-C via X3) was 32 mg/L (≈ 28.7 µM). `C/C=C1/NC(=O)[C@H](CCN)NC(=O)[C@H](CC(C)C)NC(=O)[C@H](CN)NC(=O)C[C@@H](CCCCCCCC(C)C)OC(=O)[C@H](CC(=O)O)NC(=O)[C@H](C(C)(C)O)NC(=O)[C@@H](Cc2ccccc2)NC(=O)[C@H](CN)NC(=O)[C@H]([C@@H](C)O)NC1=O` [Compound 6, Isopedopeptin F] ([Dap]L[Dab][X1]T[Dap][dF][Val(3-OH)]D; linker N-C via X5) registered an MIC of 32 mg/L (≈ 27.6 µM). With `C/C=C1/NC(=O)[C@H](CCN)NC(=O)[C@H](CC(C)C)NC(=O)[C@H](CN)NC(=O)C[C@@H](CCCC=CCCC(C)C)OC(=O)[C@H](CC(=O)O)NC(=O)[C@H](C(C)C)NC(=O)[C@@H](Cc2ccccc2)NC(=O)[C@H](CN)NC(=O)[C@H]([C@@H](C)O)NC1=O` [Compound 7, Isopedopeptin G] ([Dap]L[Dab][X1]T[Dap][dF]VD; linker N-C via X4), the “MIC K. pneumoniae LMG20218” value came out at 16 mg/L (≈ 14 µM) and the MIC was in the range of 8 to 16 mg/L (≈ 7.01 to 14 µM). For the compound `C/C=C1/NC(=O)[C@H](CCN)NC(=O)[C@H](CC(C)C)NC(=O)[C@H](CN)NC(=O)C[C@@H](CC=CCCCCC(C)C)OC(=O)[C@H](CC(=O)O)NC(=O)[C@H](C(C)C)NC(=O)[C@@H](Cc2ccccc2)NC(=O)[C@H](CN)NC(=O)[C@H]([C@@H](C)O)NC1=O` [Compound 8, Isopedopeptin H] ([Dap]L[Dab][X1]T[Dap][dF]VD; linker N-C via X6), 16 mg/L (≈ 14 µM) was the least that counted as inhibitory (MIC).

The record behind these values is PMC7684578, “Isopedopeptins A–H: Cationic Cyclic Lipodepsipeptides from Pedobacter cryoconitis UP508 Targeting WHO Top-Priority Carbapenem-Resistant Bacteria” (ACS Chemical Biology, 2020).
